These results are taken from patent US12257251B2, “Use of FAK inhibitor in preparation of drug for treating tumors having NRAS mutation” (INXMED (NANJING) CO., LTD., priority 2019, dated 2025).

The subject of data set [1] is human esophageal cancer cell line KYSE-270. Kind of data set: Subcutaneous xenograft of human esophageal cancer cell line KYSE-270 in NMRI nude mice: tumor growth. The class given is in vivo, mouse. The settings on record: for Tumor shrinkage [x/y]: BI853520 50 mg/Kg qd. The protocol:
1.1. Model: Subcutaneous xenograft of human esophageal cancer cell line KYSE-270 in NMRI nude mice.
1.3. Cells: KYSE-270 is an esophageal cancer cell line (Public Health England, catalog number: 94072021). Cells were cultured in T175 tissue culture flasks containing 5% CO2 at 37° C. The medium was RPMI 1640+HAM F12 (1:1) supplemented with 2% FCS and 2 mM Glutamax. Passage was performed three times a week at a ratio of 1:2.
1.4. Mice: Mice were 8 to 10 week old female mice (BomTac: NMRI-Foxn1^nu) purchased from Taconic®, Denmark. Upon arrival in the animal room, the mice were allowed to acclimate for at least 5 days before being used for assay. The animals were housed under standard conditions (temperature: 21.5±1.5° C., humidity: 55+10%), 7 to 10 mice for each group. A standard diet and autoclaved tap water were provided for ad libitum feeding. A subcutaneous microchip implanted under isoflurane anesthesia was used to identify each mouse.
1.5. Random establishment of tumors: To establish subcutaneous tumors, KYSE-270 cells were harvested by centrifugation, washed and resuspended in PBS+5% FCS at a concentration of 5×10^7 cells/ml. Then 100 l of cell suspension containing 5×10^6 cells was injected subcutaneously into the right flank of mice (1 site per mouse). When tumors were well established and reached a volume of 94 to 252 mm^3, mice were randomly assigned to the treatment group and the control group (13 days after cell injection).
1.6. Administration: BI 853520 was suspended in 0.5% hydroxyethyl cellulose, which was administered intragastrically through gavage needle every day, and the dosage was 10 mL/Kg body weight. Paclitaxel was dissolved in saline (0.9% NaCl), which was administered intravenously in a volume of 10 ml/kg body weight. The suspension of BI853520 could be used for up to 7 days. Paclitaxel solution was stored at 6° C. and used for up to 14 days.
(§1) 1.7. Monitoring tumor growth and side effects: Tumor diameters were measured with calipers three times a week. The volume [mm^3] of each tumor was calculated according to the equation “tumor volume=length×diameter^2×π/6”. To monitor the side effects of the treatment, the mice were checked daily for abnormalities and their body weights were measured three times a week. For ethical reasons, animals with tumors larger than 1.5 cm in diameter, ulcerated tumors, or 20% body weight loss were euthanized.
Statistical assessment of tumor volume and body weight on day 13 was performed. Animal number 1 (control group) was excluded from the statistical evaluation because of weight loss and had to be euthanized early (day 9). Measured tumor volume was used as the target variable in the statistical analysis. The number of animals and the median, minimum and maximum tumor volumes in each group were calculated. For a quick overview of possible treatment effects, the median tumor volume for each treatment group T and the median tumor volume for the control group C were used to calculate TGI: TGI=100×[(Cd−C1)−(Td−T1)]/(Cd−C1) • wherein, C1, T1=median tumor volume in control and treatment groups at the start of the assay (day 1). • Cd, Td=median tumor volume in control and treatment groups at the end of the assay (day 13).
(§2) The wilcoxon test was used for comparison. For body weight, the percent change relative to initial body weight on day 1 was used as the target variable for statistical analysis. The number of animals, and the median, minimum and maximum weight changes in each group were calculated.
(§3) One-sided test to compare all treatment groups with control group was performed for observing: • reduction in tumor volume (inhibition of tumor growth, efficacy parameter) and • reduction in weight changes (weight loss, tolerance parameters).
Within each subtopic, p-values for the efficacy parameter were compared and adjusted for multiple times according to Bonferroni-Holm. The p-value for the tolerance parameter was kept constant so as not to overlook possible side effects. […]

Data set [2] can be described thus: Body weight change (tolerability) in the KYSE-270 xenograft study. It is filed as in vivo, mouse. As to conditions: for Change in median weight: BI853520 50 mg/Kg qd, day 13 versus day 1. As for the experimental part:
as §1, §2, §3
Within each subtopic, p-values for the efficacy parameter were compared and adjusted for multiple times according to Bonferroni-Holm. The p-value for the tolerance parameter was kept constant so as not to overlook possible side effects. Significance level was fixed at α=5%. A p-value (adjusted) of less than 0.05 was considered to show a statistically significant difference between groups, and 0.05≤p-value<0.10 was considered as an indicative difference. Statistical evaluations were performed using the SAS software package version 9.4 (SAS Institute Inc., Cary NC, USA).

The subject of data set [3] is 37 different tumors (human tumor CDX). As to conditions: across CDX models of 37 different tumors; cited from earlier work.

As for `COc1cc(C(=O)NC2CCN(C)CC2)c(F)cc1Nc1ncc(C(F)(F)F)c(Oc2cccc3c2C(=O)N(C)C3)n1` [BI853520], the TGI in data set [1] (BI853520 50 mg/Kg qd p.o., day 13) is reported as 106%. For the same compound, the “Tumor shrinkage [x/y]” value in data set [1] (day 13, 50 mg/kg) is listed as 6/7; in data set [1] (day 13, listed as BI 853520, 50 mg/kg), 6 of 7. In addition, in data set [1] (BI 853520 50 mg/kg), the “Inhibition of tumor growth (in words)” value is listed as “statistically significant inhibition of tumor growth”. Further, the Median tumor volume in data set [1] (BI 853520 50 mg/kg per day, day 13 (start 175 mm^3)) is reported as 126 mm^3. Besides, the “Change in median weight” value in data set [2] (50 mg/kg) is listed as “+2.8%”; in data set [2] (listed as BI 853520, 50 mg/kg), 2.8%. The “Tolerability (in words)” value in data set [2] (BI 853520 50 mg/kg) was “well tolerated”. Also, the “TGI (tumor growth inhibition) span” value in data set [3] is reported as 0 to 107%.
